Key:
Type in all cases: cell-based, mouse
[1] = tested on: α7 integrin (LacZ reporter in α7βgal+/− myoblasts); experiment: Myoblast α7+/LacZ integrin FDG assay (Burkin assay in myoblasts, 96-well); details: α7+/LacZ myoblasts, 96-well
[2] = tested on: β-galactosidase in CMV-LacZ C2C12 myotubes; experiment: CMV-LacZ secondary screen in C2C12 myotubes (β-Gal stabilizing assay); details: for CMV-LACZ in Myotubes, signal relative to DMSO: C2C12 CMV-LacZ myotubes, fold relative to DMSO; for CMV-LACZ in Myotubes (β-galactosidase activity relative to DMSO): CMV-LacZ C2C12 myotubes, 96-well format
How it was run: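 A secondary screen identifies compounds that stabilize β-gal independently of the native promoter, using CMV-LacZ C2C12 cells. Curves span 0.5–40 μM at six levels, in duplicate.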

[3] = tested on: α7 integrin (LacZ reporter in α7+/LacZ myotubes); experiment: Myotube α7 integrin FDG assay (Burkin assay in myotubes, 96-well); details: myotubes

Structure (SMILES)	Burkin Assay in Myoblasts, value relative to DMSO ([1]; 0.5 uM)	Burkin Assay in Myoblasts, value relative to DMSO ([1]; 1 uM)	Burkin Assay in Myoblasts, value relative to DMSO ([1]; 5 uM)	Burkin Assay in Myoblasts, value relative to DMSO ([1]; 10 uM)	Burkin Assay in Myoblasts, value relative to DMSO ([1]; 20 uM)	Burkin Assay in Myoblasts, value relative to DMSO ([1]; 40 uM)	CMV-LACZ in Myotubes, signal relative to DMSO ([2]; 5 uM)	CMV-LACZ in Myotubes, signal relative to DMSO ([2]; 10 uM)	CMV-LACZ in Myotubes, signal relative to DMSO ([2]; 20 uM)	CMV-LACZ in Myotubes, signal relative to DMSO ([2]; 40 uM)	Burkin Assay in Myotubes (signal relative to DMSO) ([3]; 0.5 uM)	Burkin Assay in Myotubes (signal relative to DMSO) ([3]; 1 uM)	Burkin Assay in Myotubes (signal relative to DMSO) ([3]; 5 uM)	Burkin Assay in Myotubes (signal relative to DMSO) ([3]; 10 uM)	Burkin Assay in Myotubes (signal relative to DMSO) ([3]; 20 uM)	Burkin Assay in Myotubes (signal relative to DMSO) ([3]; 40 uM)	CMV-LACZ in Myotubes (β-galactosidase activity relative to DMSO) ([2]; 5 uM)	CMV-LACZ in Myotubes (β-galactosidase activity relative to DMSO) ([2]; 10 uM)	CMV-LACZ in Myotubes (β-galactosidase activity relative to DMSO) ([2]; 20 uM)	CMV-LACZ in Myotubes (β-galactosidase activity relative to DMSO) ([2]; 40 uM)
O=Cc1ccc(C(=O)OCC(=O)N2CCCC2)cc1 [MLS001172577-01]	0.996	0.9654	1.142	1.0758	1.0212	0.9431	0.8944	0.862	1.029	0.9627	1.122	1.0349	1.131	1.101	1.14	0.7324	–	–	–	–
COC(=O)C(=O)C/C(=N/Nc1ncnc2ccccc12)c1ccc(Cl)cc1 [MLS001174719-01]	1.053	1.048	1.013	0.848	0.7524	0.5265	0.8551	0.832	0.9254	1.108	1.135	1.001	1.128	1.034	0.9771	0.7374	–	–	–	–
COc1ccccc1CNS(=O)(=O)c1ccc(Cl)s1 [MLS001175449-01]	1.0562	1.036	1.045	0.9949	1.066	0.7564	0.8534	0.9034	0.889	0.8671	1.1188	1.016	1.156	0.9366	1.151	0.8041	–	–	–	–
CS(=O)(=O)Cc1cccc(C(=O)NN(c2ccccc2)c2ccccc2)c1 [MLS001175473-01]	0.5331	0.3721	0.8732	0.8715	0.899	0.8698	–	–	–	–	0.9556	0.9177	0.8872	0.9977	1.041	0.7971	0.8962	0.8587	0.9592	1.066
C/C(=N\Nc1nncc2ccccc12)c1cccc(OC(F)F)c1 [MLS001175556-01]	0.92	0.8625	0.9202	0.8856	0.8956	0.8018	–	–	–	–	0.949	1.028	1.1	0.9013	0.901	0.7514	1.113	1.053	0.9158	1.103
Cc1ccc(NC(=O)NCc2nc3ccccc3n2C)cc1 [MLS001175592-01]	0.8989	0.8859	0.9323	0.9006	0.9731	0.9405	0.947	1.031	0.9649	1.018	0.9685	0.986	0.6911	1.034	0.6445	1.047	–	–	–	–
CN(C)S(=O)(=O)c1cccc(C(=O)Nc2ccc3c(c2)CCC3)c1 [MLS001176611-01]	1.049	0.994	1.097	1.072	0.8398	0.9134	–	–	–	–	0.9506	0.6671	1.066	0.9301	0.9665	0.9846	0.9287	1.235	1.034	0.785
CC(=O)Nc1ccc(NC(=O)[C@@H](NC(=O)c2cccc(C)c2)C(C)C)cc1 [MLS001176897-01]	0.9342	0.9456	0.9058	0.9978	0.9458	0.9475	–	–	–	–	0.9577	1.073	1.022	1.194	1.145	1.163	1.009	0.797	1.121	1.046

Source: patent US9980943B2, “Methods of treating muscular dystrophy” (BOARD OF REGENTS OF THE NEVADA SYSTEM OF HIGHER EDUCATION, …, priority 2013, dated 2018)
